Source: patent EP2518139A1, “Use of indirubin derivatives for producing pluripotent stem cells” (Universitätsklinikum Jena, priority 2011, dated 2012)
pIC50: −log10 of the molar value. “Also recorded” adds a separate entry of the source.

Legend:
[1] = test system: ß-Catenin; assay: Immunoblot of non-phosphorylation-ß-Catenin in HeLa cells; assay type: cell-based, human; settings: 1 h, BMP2 (100ng/mL), already from 0.1µM
Procedure: (§1) Western blot:: Cell extracts were homogenized in Urea-Lysis buffer (1mM EDTA,0.5% Triton X-100), 5mM NaF, 6M Urea, 1mM Na3VO4, 10µg/mL Pepstatin, 100µM PMSF and 3µg/mL Aprotinin in PBS). Enhanced chemiluminescence (ECL) Western blot analysis was performed. 20-40µg of total protein was resolved on 10% SDS-PAGE gels and immunoblotted with specific antibodies. Primary antibodies were incubated at a 1:1,000 dilution in TBS (pH 7.5) with 0.1% Tween-20 and 5% BSA/nonfat milk with gentle agitation overnight at 4°C. The proper secondary antibodies were incubated in TBS (pH 7.5) with 5% BSA/nonfat milk and 0.1 % Tween-20 at a 1:5,000 dilution for 1 h at room temperature.
(§2) To assess the effect of E738 on Wnt and Stat3 pathway in mammalian cellular context, HeLa cells were treated with E738 at increasing concentrations for 1 h. Here E804 was used as reference because of its well-known inhibition of Stat3 and Wnt. The antibodies of p-Stat3 and non-phosphorylation-ß-Catenin (NP-ß-Catenin, Ser33/37/Thr41), which can provide a convenient positive band if GSK3B is inhibited, were recruited to substantiated our in vitro results. […] With the stimulation of FCS, we also observed the similar regulation on Stat3 and MAPKs pathways depicted in Fig. 8.

[2] = test system: Stat3; assay: Immunoblot of p-Stat3 in HeLa cells; assay type: cell-based, human; settings: 1 h, BMP2 (100ng/mL), already from 0.1µM
Procedure: as §1, §2

[3] = biological target: T1, CDK2/CycA (Homo sapiens, UniProt P24941); assay: Kinase profiling assay (ProQinase), residual activity; assay type: biochemical; settings: 1µM E738, 1µM ATP, recombinant protein kinase
T1 construct: purchased ProQinase
Procedure: (§3) Kinase Assay: The Kinase profiling assay was performed by ProQinase as previously described (Cheng et al.201 0).
(§4) Because E738 initially was designed as a protein kinase inhibitor, we asked if E738 induced dephoshorylation and degradation are caused by certain protein kinases. Thus we exploited protein kinase profiling containing several Smad-relative protein kinases like CDKs and GSK3ß to overview the inhibitory effect of E738 in vitro. The residual activities of kinases were measured by using recombinant protein kinases and proper substrates after treatment with 1µM E738 in the presence of 1µM ATP as our previously described. […] However the mechanism was still remained to elucidate. Recently, researchers argued that Raf kinase inhibitor may induce the activation of MAPKs in vitro and in vivo leading to the failure of cancer therapy (Hatzivassiliou nature 2010 464 431-436, Heidol cell 2010 140 209-221, Murphy PNAS 2010 107 9 4299-4304). We assumed that the indirubin activated MAPKs might be due to its inhibition against Raf kinase. Furthermore, the Lin et. al. described Stat3 inhibitor could disrupt TGFß signaling (Lin oncogene 200928 961-972). Therefore we included Raf and Stat3-relative protein kinases, like Jak, Kit and Src, in this small screening.

[4] = biological target: T2, CDK5/p35 (Homo sapiens, UniProt Q00535); assay: as above; assay type: biochemical; settings: 1µM E738, 1µM ATP, recombinant protein kinase
T2 construct: purchased ProQinase
T2 sequence (Q00535 whole entry): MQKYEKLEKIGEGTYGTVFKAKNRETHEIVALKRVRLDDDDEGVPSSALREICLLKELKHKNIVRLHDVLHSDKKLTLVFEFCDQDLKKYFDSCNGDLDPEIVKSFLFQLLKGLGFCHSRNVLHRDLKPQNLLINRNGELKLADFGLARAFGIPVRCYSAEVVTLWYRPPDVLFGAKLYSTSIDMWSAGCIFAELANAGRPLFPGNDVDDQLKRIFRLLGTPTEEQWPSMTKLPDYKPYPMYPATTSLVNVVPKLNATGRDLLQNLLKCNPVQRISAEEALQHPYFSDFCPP
T2 sequence (Q15078 whole entry partner): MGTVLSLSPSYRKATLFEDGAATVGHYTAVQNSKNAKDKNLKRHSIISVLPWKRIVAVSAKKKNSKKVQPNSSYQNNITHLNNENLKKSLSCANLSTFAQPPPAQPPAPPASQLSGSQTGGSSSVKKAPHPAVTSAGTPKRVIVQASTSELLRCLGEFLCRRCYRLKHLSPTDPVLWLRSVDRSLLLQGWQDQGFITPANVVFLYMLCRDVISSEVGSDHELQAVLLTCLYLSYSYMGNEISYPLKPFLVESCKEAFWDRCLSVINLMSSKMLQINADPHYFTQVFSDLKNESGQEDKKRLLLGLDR
Procedure: as §3, §4

[5] = biological target: T3, GSK3ß (Homo sapiens, UniProt P49841); assay: as above; assay type: biochemical; settings: read-out: residual activity of GSK3ß
T3 construct: purchased ProQinase
T3 sequence (P49841 whole entry): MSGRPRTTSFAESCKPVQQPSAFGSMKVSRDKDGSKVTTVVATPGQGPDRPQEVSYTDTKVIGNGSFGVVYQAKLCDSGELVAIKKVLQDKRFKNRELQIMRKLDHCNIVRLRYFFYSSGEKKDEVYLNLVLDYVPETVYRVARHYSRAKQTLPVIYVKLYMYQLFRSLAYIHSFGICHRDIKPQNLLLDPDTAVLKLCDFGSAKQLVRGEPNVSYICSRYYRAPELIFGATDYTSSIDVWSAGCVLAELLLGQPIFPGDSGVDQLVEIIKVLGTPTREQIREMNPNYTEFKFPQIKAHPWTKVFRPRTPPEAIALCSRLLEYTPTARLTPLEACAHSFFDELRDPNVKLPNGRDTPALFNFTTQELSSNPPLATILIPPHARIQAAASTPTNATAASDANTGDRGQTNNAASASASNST
Procedure: as §3, §4

[6] = biological target: T4, CDK2/CycE (Homo sapiens, UniProt P24941); assay: as above; assay type: biochemical; settings: 1µM E738, 1µM ATP, recombinant protein kinase
T4 construct: purchased ProQinase
Procedure: as §3, §4

[7] = biological target: T5, CDK4/CycD1 (Homo sapiens, UniProt P11802); assay: as above; assay type: biochemical; settings: 1µM E738, 1µM ATP, recombinant protein kinase
T5 construct: purchased ProQinase
T5 sequence (P11802 whole entry): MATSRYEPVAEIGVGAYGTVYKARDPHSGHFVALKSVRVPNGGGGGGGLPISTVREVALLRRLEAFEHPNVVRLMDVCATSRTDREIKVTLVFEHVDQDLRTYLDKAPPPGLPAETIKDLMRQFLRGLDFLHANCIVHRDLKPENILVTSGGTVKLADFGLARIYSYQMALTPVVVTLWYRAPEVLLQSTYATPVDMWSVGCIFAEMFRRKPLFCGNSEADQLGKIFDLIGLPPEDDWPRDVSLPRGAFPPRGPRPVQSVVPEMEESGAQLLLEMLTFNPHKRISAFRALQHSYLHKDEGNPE
T5 sequence (P24385 whole entry partner): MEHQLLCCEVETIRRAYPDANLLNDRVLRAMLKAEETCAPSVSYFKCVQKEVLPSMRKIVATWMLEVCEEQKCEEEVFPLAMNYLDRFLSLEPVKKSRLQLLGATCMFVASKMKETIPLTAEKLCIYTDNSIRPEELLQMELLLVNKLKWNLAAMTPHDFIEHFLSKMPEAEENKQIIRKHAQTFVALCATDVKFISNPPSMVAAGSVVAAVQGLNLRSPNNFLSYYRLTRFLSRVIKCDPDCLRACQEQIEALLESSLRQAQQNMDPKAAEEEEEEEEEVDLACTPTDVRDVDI
Procedure: as §3, §4

[8] = biological target: T6, CDK1/CycB1 (Homo sapiens, UniProt P06493); assay: as above; assay type: biochemical; settings: 1µM E738, 1µM ATP, recombinant protein kinase
T6 construct: purchased ProQinase
T6 sequence (P06493 whole entry): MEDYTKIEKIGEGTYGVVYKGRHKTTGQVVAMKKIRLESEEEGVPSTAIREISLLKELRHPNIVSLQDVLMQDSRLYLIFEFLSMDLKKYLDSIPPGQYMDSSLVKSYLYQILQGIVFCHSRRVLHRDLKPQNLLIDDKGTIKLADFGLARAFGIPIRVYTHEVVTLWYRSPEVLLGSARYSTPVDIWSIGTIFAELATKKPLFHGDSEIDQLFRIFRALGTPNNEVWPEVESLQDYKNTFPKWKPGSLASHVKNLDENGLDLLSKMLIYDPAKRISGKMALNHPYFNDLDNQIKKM
T6 sequence (P14635 whole entry partner): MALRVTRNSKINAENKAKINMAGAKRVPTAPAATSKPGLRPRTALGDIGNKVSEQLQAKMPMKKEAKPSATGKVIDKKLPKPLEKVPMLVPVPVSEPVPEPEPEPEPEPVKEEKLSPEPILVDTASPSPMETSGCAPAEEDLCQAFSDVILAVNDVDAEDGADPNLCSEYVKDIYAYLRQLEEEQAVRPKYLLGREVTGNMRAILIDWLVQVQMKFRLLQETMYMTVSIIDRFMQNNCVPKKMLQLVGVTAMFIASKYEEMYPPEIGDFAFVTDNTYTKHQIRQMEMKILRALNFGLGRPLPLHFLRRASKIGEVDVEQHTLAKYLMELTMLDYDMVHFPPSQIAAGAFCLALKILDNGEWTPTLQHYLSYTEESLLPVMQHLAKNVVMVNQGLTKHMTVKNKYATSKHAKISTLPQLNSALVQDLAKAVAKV
Procedure: as §3, §4

[9] = test system: Smad1/5/8; assay: Immunoblot of p- and pan-Smad1/5/8 in C2C12; assay type: cell-based, mouse; settings: C2C12, BMP2 (100ng/mL), 24h, E738 0,5µM, 1µM and 5µM
Procedure: (§5) Cell culture: HeLa and C2C12 were cultured in DMEM containing 10% FCS and 1 % PS. HFF was cultured in DMEM containing 15% FCS and 1 %PS. NIH 3T3 was cultured in DMEM containing 10% NCS and 1% PS. The cells were maintained unter 5% CO2 at 37°C in a humidified atmosphere. After 24h preincuabtion in serum-free medium, the cells were treated with various compounds and proteins as indicated in context. Transfection of siRNA oligonuleotide against Smurf1 was reported by Zhu et al (Zhu et al., nature 2006) and synthesized by riboxx and performed using riboxx®FECT reagent according to the manufacturer's instructions. 24h after transfection, the cells were treated with BMP (100ng/mL) and Compound as indicated before lysis.
as §1, with “temperature. […]” for “temperature.”

[10] = test system: HeLa cells; assay: Growth inhibition of HeLa cells, BMP2 versus FCS; assay type: cell-based, human
[11] = test system: Smad1/5/8; assay: Immunoblot of p- and pan-Smad1/5/8 in NIH 3T3; assay type: cell-based, mouse; settings: NIH3T3, BMP2 (100ng/mL), 24h
Procedure: as §5
as §1, with “temperature. […]” for “temperature.”

[12] = test system: MAPKs (JNK, P38, Erk1/2); assay: Immunoblot of phosphorylated MAPKs in HeLa cells; assay type: cell-based, human; settings: BMP2 (100ng/mL)
Procedure: as §1
To assess the effect of E738 on Wnt and Stat3 pathway in mammalian cellular context, HeLa cells were treated with E738 at increasing concentrations for 1 h. Here E804 was used as reference because of its well-known inhibition of Stat3 and Wnt. The antibodies of p-Stat3 and non-phosphorylation-ß-Catenin (NP-ß-Catenin, Ser33/37/Thr41), which can provide a convenient positive band if GSK3B is inhibited, were recruited to substantiated our in vitro results. […] With the stimulation of FCS, we also observed the similar regulation on Stat3 and MAPKs pathways depicted in Fig. 8. […]

[13] = test system: tumor cells; assay: MTT assay, tumor cells; assay type: cell-based; settings: various cancer cell lines, read-out: IC50-values, tumor cells growth

COc1ccc2c(c1)C(=C1Nc3ccccc3C1=NOCC(O)CO)C(=O)N2 (stereo not drawn) [E738]
non-phosphorylation-ß-Catenin (NP-ß-Catenin, Ser33/37/Thr41) [1]: highly stabilized ß-Catenin | phosphorylation of Stat3 [2]: repressed phosphorylation of Stat3 | remaining activity at 1 µM [3]: 10% | remaining activity at 1 µM [4]: 16% | remaining activity at 1 µM [5]: 6% | remaining activity at 1 µM [6]: 8% | remaining activity at 1 µM [7]: 23% | remaining activity at 1 µM [8]: 16% | p- and pan-Smad1/5/8 [9]: decline of both | more efficient inhibition of HeLa cells growth in response to BMP2 than FCS [10]: above 10 fold | concentration sufficient to reduce Smad1/5/8 [11]: 0.5 µM | p- and pan-Smad1/5/8 ([11]; E738 0,5µM, 1µM and 5µM): decline of both | phosphorylations of MAPKs (JNK, P38, Erk1/2) ([12]; 1 h, increasing concentrations): promoted phosphorylations of JNK and P38 at the low concentraions, but not for Erk1/2 | p-JNK, p-P38 and pErk1/2 ([12]; 6h after treatment): induced activation of P38; also recorded: clear increases of p-JNK and p-P38 were observed 6h after treatment, but not pErk1/2 | pIC50 [13]: > 6.00
